# Test results reported in article PMC10530652 (BME Frontiers, 2021).
# Key:
# [1] = target: T1, MMP-2 (Homo sapiens, UniProt P08253); test: In vitro enzymatic validation of FIB One with recombinant MMP-2 (plate reader); format: biochemical; conditions: MMP 30 nM
# T1 construct: recombinant MMPs (Enzo Life Sciences) (active domains of MMP-1, MMP-2, MMP-3, MMP-7, MMP-8, MMP-9, MMP-10, MMP-11, MMP-12, and MMP-13); purchased Enzo Life Sciences
# Procedure: (§1) To determine the enzymatic specificity of FIB One, the probe was incubated at a concentration of 1 μM (unless otherwise stated) with the recombinant MMPs (Enzo Life Sciences) (active domains of MMP-1, MMP-2, MMP-3, MMP-7, MMP-8, MMP-9, MMP-10, MMP-11, MMP-12, and MMP-13, all at 30 nM), thrombin (Sigma Aldrich) (5 U/mL), factor Xa (Sigma Aldrich) (500 nM), plasmin (Sigma Aldrich) (30 nM), and human neutrophil elastase (30 nM). Where appropriate, enzymes were incubated with specific inhibitors for 30 min at 37°C prior to addition of FIB One. […] Enzyme free reactions served as a control. Enzymatic reactions were performed in MMP buffer (10 mM CaCl2, 6.1 g Tris-HCl, 8.6 g NaCl per litre, pH 7.5) in a final volume of 20 μL. Reactions were performed in duplicate in 384-well plates (Life Technologies) with optically clear plate seals (Thermo Scientific) and repeated thrice (independently). Fluorescence signal was measured for up to 60 min, ex/em 485/528 nm using microplate reader (BioTek Synergy H1 multimode reader). Data were normalised to buffer alone and are presented as fold-change in signal (relative fluorescent units, RFU) compared to enzyme-free controls. Data were plotted using Prism 7 (GraphPad Software Inc., La Jolla, CA, USA).
# [2] = target: T2, MMP-13 (Homo sapiens, UniProt P45452); test: In vitro enzymatic validation of FIB One with recombinant MMP-13 (plate reader); format: biochemical; conditions: MMP 30 nM
# T2 construct: recombinant MMPs (Enzo Life Sciences) (active domains of MMP-1, MMP-2, MMP-3, MMP-7, MMP-8, MMP-9, MMP-10, MMP-11, MMP-12, and MMP-13); purchased Enzo Life Sciences
# Procedure: as §1, with “Fluorescence signal was measured for up to 60 min, ex/em 485/528 nm using microplate reader (BioTek Synergy H1 multimode reader).” left out
# [3] = system: primary human lung tissue; test: Ex vivo fibre-based (FCFM) imaging of human lung tissue with FIB One; conditions: FIB One 1 μM, imaged 10 min, FCFM 488 nm excitation, n=9
# Procedure: Human lung tissue samples (lung tumour and noncancerous adjacent tissue) were obtained following surgical resection and stored at -80° C until use. Processing for multiwell plate reader assay or zymography analysis was conducted as follows: 1 mm×4 mm sections were homogenised in 400 μL MMP buffer in Precellys 2.8 mm ceramic bead tubes (VWR) using a Pecellys 24 homogeniser. Homogenised tissue was adjusted to 4 mg mL^-1 protein (determined by a Pierce BCA Total Protein Assay Kit (Thermo Fisher Scientific), following the manufacturer’s instructions). Multiwell plate reader assays were performed as previously described, replacing the MMP buffer and MMP enzymes for the homogenised and protein-adjusted lung tissue.
# For ex vivo imaging, human lung tissue was sliced into 1 mm×4 mm sections and placed in the wells of a 96-well plate with 100 μL of MMP buffer and 30 nM MMP-13. […] The fluorescence for each sample was calculated by determining the average fluorescence per frame for each time point. […] Five independent patient specimens were collected and analysed. RFUs collected from off-target frames (showing motion artefact or absence of any fluorescence) were omitted during analysis.
# [4] = system: erythrocyte; test: Erythrocyte hemolysis; format: cell-based
# [5] = system: Salmonella typhimurium strain TA100; test: Reduced test article AMES test, TA100; format: cell-based; conditions: up to 250 μg/well, in the absence and presence of rat liver S-9
# Procedure: These conditions included treatments at concentrations up to 250 μg/well (a 20-fold pro rata reduction from the standard regulatory Ames assay maximum concentration), in the absence and in the presence of a rat liver metabolic activation system (S-9).
# [6] = FIB One 1 μM, MMP buffer pH 7.5, ex/em 485/528 nm, fold-change vs enzyme-free control, n=3 in duplicate
# [7] = AZD1236 0.11-14 µM, FIB One 1 µM
# T1 sequence (P08253 110-446 limits assumed): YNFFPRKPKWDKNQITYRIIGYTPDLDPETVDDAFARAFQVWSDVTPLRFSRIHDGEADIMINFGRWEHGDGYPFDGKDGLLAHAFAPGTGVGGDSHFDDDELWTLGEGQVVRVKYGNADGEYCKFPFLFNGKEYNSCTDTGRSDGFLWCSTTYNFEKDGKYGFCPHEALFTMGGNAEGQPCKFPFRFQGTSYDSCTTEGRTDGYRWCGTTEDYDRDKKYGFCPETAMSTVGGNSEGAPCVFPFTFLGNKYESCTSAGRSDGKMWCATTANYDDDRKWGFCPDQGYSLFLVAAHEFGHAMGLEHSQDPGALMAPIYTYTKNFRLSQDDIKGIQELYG
Substance,"fluorescent amplification of FIB One on exposure to enzyme [1, 6]","fluorescent amplification of FIB One on exposure to enzyme [2, 6]","signal amplification compared with analogous monomeric linear structure (FRET-monomer) ([2]; probes 1 µM, 10 min incubation, n=3 in duplicate)",cleavage of FIB One [3],erythrocyte hemolysis [4],mutation induction [5],"inhibition of MMP [1, 7]","inhibition of MMP [2, 7]"
(Pro-Phe-Gly-Nle-Lys-βAla)3 [FIB One],rapid and specific fluorescent amplification,rapid and specific fluorescent amplification,improved signal amplification,cleaved,absence of erythrocyte hemolysis,did not induce mutation,–,–
AZD1236,–,–,–,–,–,–,ability to inhibit,ability to inhibit
